Test results reported in ChEMBL document CHEMBL1154528, “Discovery of a novel series of quinoxalines as inhibitors of c-Met kinase” (Bioorg Med Chem Lett, 2009).

Experiments:
[1] = Inhibition of Flt at 10 uM; set-up: scale not given: the % may be the effect or the level left
[2] = molecular target: Vascular endothelial growth factor receptor 2 (Homo sapiens) (UniProt P35968); test: Inhibition of KDR at 10 uM; set-up: scale not given: the % may be the effect or the level left
Vascular endothelial growth factor receptor 2 (Homo sapiens), sequence (P35968 whole entry): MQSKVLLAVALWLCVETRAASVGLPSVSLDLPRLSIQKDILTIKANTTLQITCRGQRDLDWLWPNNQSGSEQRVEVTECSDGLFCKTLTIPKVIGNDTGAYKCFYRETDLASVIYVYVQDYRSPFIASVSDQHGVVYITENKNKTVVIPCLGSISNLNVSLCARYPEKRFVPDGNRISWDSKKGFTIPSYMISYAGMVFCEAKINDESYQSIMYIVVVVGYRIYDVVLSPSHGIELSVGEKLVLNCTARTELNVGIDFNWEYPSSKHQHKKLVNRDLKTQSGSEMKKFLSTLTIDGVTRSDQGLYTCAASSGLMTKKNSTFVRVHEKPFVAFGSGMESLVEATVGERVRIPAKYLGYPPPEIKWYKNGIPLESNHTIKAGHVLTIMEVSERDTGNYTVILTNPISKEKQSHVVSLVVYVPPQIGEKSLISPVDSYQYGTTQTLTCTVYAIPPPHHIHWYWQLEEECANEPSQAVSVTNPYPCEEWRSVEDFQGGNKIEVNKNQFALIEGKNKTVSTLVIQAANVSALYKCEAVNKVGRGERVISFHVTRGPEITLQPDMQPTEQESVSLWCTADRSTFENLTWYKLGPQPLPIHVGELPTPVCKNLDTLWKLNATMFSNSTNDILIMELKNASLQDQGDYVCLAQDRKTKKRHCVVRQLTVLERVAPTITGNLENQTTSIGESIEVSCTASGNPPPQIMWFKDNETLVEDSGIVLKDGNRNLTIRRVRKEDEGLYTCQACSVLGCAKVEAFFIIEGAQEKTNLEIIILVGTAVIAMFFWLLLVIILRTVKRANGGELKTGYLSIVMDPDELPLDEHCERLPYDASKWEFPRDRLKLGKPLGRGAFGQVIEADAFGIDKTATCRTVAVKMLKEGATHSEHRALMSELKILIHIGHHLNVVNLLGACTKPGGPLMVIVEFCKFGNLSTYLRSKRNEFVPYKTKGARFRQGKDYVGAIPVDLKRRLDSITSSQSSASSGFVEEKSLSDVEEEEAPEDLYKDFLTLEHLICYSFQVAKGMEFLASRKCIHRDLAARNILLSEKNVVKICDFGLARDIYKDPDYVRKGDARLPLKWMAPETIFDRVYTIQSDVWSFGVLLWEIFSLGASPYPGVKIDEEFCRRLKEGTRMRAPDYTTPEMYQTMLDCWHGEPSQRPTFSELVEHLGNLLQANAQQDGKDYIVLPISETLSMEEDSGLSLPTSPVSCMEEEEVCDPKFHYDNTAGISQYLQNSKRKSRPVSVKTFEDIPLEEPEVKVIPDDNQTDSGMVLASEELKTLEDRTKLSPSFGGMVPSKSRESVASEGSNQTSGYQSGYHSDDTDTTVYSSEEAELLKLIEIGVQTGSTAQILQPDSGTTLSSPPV

Activity [1]: < 30%
Activity [2]: < 30%
Compound: CN1CCN(c2cnc3cc(C(F)(F)F)cc(-c4ccccc4)c3n2)CC1
